Laboratory results as given in patent US20130116224A1, “Method and Composition for Treatment of Tumors” (priority 2010, published 2013).

Legend:
RWPE = assay: In vitro anti-cancer efficacy study of CTC-96, ATCC recommended growth condition (protocol GP687), cell viability and proliferation assay (RFU); format: cell-based
Protocol: (§1) B. In Vitro Anti-Cancer Efficacy Study of CTC-96 in Cell Lines Maintained in ATCC Recommended Growth Condition Using Approved Protocol GP687
(§2) For example in FIG. 2C, on day 2 with 20 μg/mL CTC-96. […] This difference among the cell lines was quite consistent at all initial seeding densities except for the highest (100%). At the three lower density seedings, the decrease in relative fluorescence units (RFU) was in a near linear relationship with increase of CTC-96 dose for LNCaP and RWPE cells. Both cell types began to show a response to CTC-96 at 5 μg/mL. (see FIGS. 2 C and D).
(§3) When cell proliferation data were obtained for all time points, the RFU reading on day 3 was considerably lower than the projected trend line as shown in FIG. 1. The possible cause was the variation in the incubation time as described in GP687 9.5.2.3. […] Due to time constraints, the incubation time carried out was shorter on day three than for the […]. The longer the incubation time, the greater the RFLI measured. Therefore, day 3 incubation data were not included in the analysis, see FIG. 2. […] Different cell density seedings allowed this study to maximally evaluate the anticancer efficacy of CTC-96. In vitro anticancer effectiveness can be categorized into: killing and inhibiting effects. High density seeding provides maximal numbers of cells to reveal the killing effect, which leads to extensive cell death with quick onset. Also high cell density sometimes provides some protection against cytotoxic effects. Low density seeding reduces the effects of contact inhibition in non-malignant cell lines and allows longer incubation with the drug. The longer treatment time allows observation of maximum inhibitory drug effects. In addition, low density cell seeding allows untreated cells to undergo several cell divisions.
(§4) In this study, four seeding densities of 100%, 50%, 25% and 12.5% were planned for each cell line.

IMR = assay: as above; format: cell-based; conditions: day 2, 20 μg/mL CTC-96, FIG. 2C, ATCC recommended medium
Protocol: as §1, §2, §3, §4

RWPE-1 = assay: CTC-96 7-day treatment in RPMI1640/2% FBS (GP689 modified) and confirmation study, cell viability and proliferation assay; format: cell-based
Protocol: (§5) The study was performed as described in GP689 with modifications as follows:
(§6) The cell growth and test media was RPM11640/2% FBS. All cell lines were acclimated in this low-serum condition for about two weeks prior to treatment with CTC-96. CTC-96 treatment was extended to 7 days from the 3 days previously used. Cell viability and proliferation was measured and medium was changed on day 0, 2, 4 and 7. Fresh CTC-96 added during every medium change. Incubation for cell viability and proliferation assay was performed for 2 hours.
(§7) A new batch of all four test cell lines were acclimated in RPMII 640/2% FBS about 10 days prior to CTC-96 treatment. CTC-96 treatment started after […] of adaptation. A 96-well plate was used at the at the start of proliferation in an attempt to eliminate the peeling of LNCaP monolayers. A manual multichannel pipette was utilized to change medium on day 0. Peeling still occurred in one plate. That plate was arbitrarily assigned the last time point day 7 in order to have good plates of LNCaP for the first three time points in a row.
(§8) For medium changes on days 2, 4 and 7, only half of the media was replaced to completely eliminate the peeling in LNCaP. This method was utilized for the other three cell lines in order to keep the entire test system consistent for all the cell lines. The replacement media contained 1×CTC-96 concentrations and therefore only half of CTC-96 was freshly replaced. Incubation for cell viability and proliferation assay was performed for strictly 2 hours. Allover proliferation was good for all cell lines (see FIG. 6). Untreated ENCaP cells became 100% confluent in all seeding conditions on day 7. […] 4.2.5.2.1.3. The day 4 RFU reading was chosen in the proliferation percentage analysis because the peeling off in LNCaP Day 7 plate led to decrease on RFU so much that the trendline of untreated cells turned downwards instead of plateauing in high density seeding, (see FIG. 6 Al 3). Decay of CTC-96 may occur over 7 days period and inhibition might be lowered towards the end of treatment. The upward turn of the trendline for malignant cell lines in 5 μg/mL may indicate this decay, (see FIG. 6 A2-3, CI-4). Malignant cell lines were more sensitive to CTC-96 than their sister normal cell lines.

IMR 90 = assay: as above; format: cell-based
Protocol: as §5, §6, §7, §8

Malme-3M [1] = assay: In vitro anti-cancer efficacy study of CTC-96, ATCC recommended growth condition (protocol GP687), cell viability and proliferation assay (RFU); format: cell-based, human; conditions: day 2, 20 μg/mL CTC-96, FIG. 2C, ATCC recommended medium
Protocol: as §1, §2, §3, §4

LNCaP [2] = assay: as above; format: cell-based, human
Protocol: as §1, §2, §3, §4

Malme-3M [3] = assay: CTC-96 7-day treatment in RPMI1640/2% FBS (GP689 modified) and confirmation study, cell viability and proliferation assay; format: cell-based, human
Protocol: as §5, §6, §7, §8

LNCaP [4] = assay: as above; format: cell-based, human
Protocol: as §5, §6, §7, §8

[5] = 20 μg/mL CTC-96, day 2 vs day 0
[6] = FIGS. 2C and D, lower density seedings
[7] = day 2, 20 μg/mL CTC-96, FIG. 2C, ATCC recommended medium

CC(/C=C(/C)[O-])=NCCN=C(C)/C=C(/C)[O-].Cc1ncc[nH]1.Cc1ncc[nH]1.[Br-].[Co+3] [CTC-96]
killing effect (net cell loss) (RWPE; [5]): lower number of cell on day 2 than on day 0 | concentration at which cells began to show a response (RWPE; [6]): 5 µg/mL | total cells in comparison to untreated controls (RWPE; [7]): 10% | total cells in comparison to untreated controls (IMR): 72% | proliferation (RWPE-1; RWPE, 10 μg/mL CTC-96, RPMI1640/2% FBS, 7-day treatment): inhibited the proliferation | inhibition (proliferation percentage, day 4 RFU) (RWPE-1; RWPE, 10 μg/mL, confirmation study, FIG. 7): lower degree of inhibition | proliferation (RWPE-1; RWPE-1, 25% cell density, 5 t μm/mL): still proceeds proliferating, albeit, at a reduced rate | proliferation (RWPE-1; RWPE-1, 50% cell density, same drug concentration (5 μm/mL)): minimally affected | cell elimination (cell loss) (RWPE-1; RWPF-1 (non-malignant counterpart), seeding densities 50% and 25%, concentration that killed the malignant cell line): no cell loss | proliferation (IMR 90; IMR 90, 5 μg/mL): continues proliferating | proliferation (IMR 90; IMR, 10 μg/mL CTC-96, RPMI1640/2% FBS, 7-day treatment): inhibited the proliferation | inhibition (proliferation percentage, day 4 RFU) (IMR 90; IMR, 10 μg/mL, confirmation study, FIG. 7): lower degree of inhibition | total cells in comparison to untreated controls (Malme-3M [1]): 70% | killing effect (net cell loss) (LNCaP [2]; [5]): lower number of cell on day 2 than on day 0 | concentration at which cells began to show a response (LNCaP [2]; [6]): 5 µg/mL | total cells in comparison to untreated controls (LNCaP [2]; [7]): 12% | proliferation (Malme-3M [3]; Malme 3M, 1 μg/mL): ceases proliferating | cell elimination / proliferation (Malme-3M [3]; Malme 3M, 5 μg/mL drug concentration): not killed, but stopped proliferating | cell number relative to originally seeded (Malme-3M [3]; Malme-3M, 5 μg/mL CTC-96, RPMI1640/2% FBS, 7-day treatment, FIG. 4C): almost no change, or even had fewer cells than originally seeded | inhibition (proliferation percentage, day 4 RFU) (Malme-3M [3]; Malme-3M, 5 μg/mL, confirmation study, FIG. 7): greater inhibition | cell number relative to originally seeded (LNCaP [4]; 5 μg/mL CTC-96, RPMI1640/2% FBS, 7-day treatment, FIG. 4A): almost no change, or even had fewer cells than originally seeded | inhibition (proliferation percentage, day 4 RFU) (LNCaP [4]; 5 μg/mL, confirmation study, FIG. 7): greater inhibition | proliferation (LNCaP [4]; 25% cell density, 5 t μm/mL): proliferation completely ceases | proliferation diminished (LNCaP [4]; 50% cell density, 5 μm/mL CTC-96, RPMI 1640/2% FBS): 30-40% | decrease in cell number compared to un-treated controls (LNCaP [4]; initial seeding densities of 50% and 25%, 5 μm/mL CTC-96): 30-50%
